Data as given in US20260226071A1, “2, 4-DIANILINOPYRIMIDINE-BASED AURORA-A KINASE SELECTIVE DEGRADATION INDUCING COMPOUNDS” (UPPTHERA, INC., priority 2023, published 2026).

Target: T1, Aurora kinase A (AURKA) (Homo sapiens, UniProt O14965)
T1 construct: endogenous in cells; host or cells: HeLa LgBit (AURKA-HiBit KI), CRISPR/Cas9 knock-in at the endogenous AURKA locus
T1 sequence (O14965 1-403): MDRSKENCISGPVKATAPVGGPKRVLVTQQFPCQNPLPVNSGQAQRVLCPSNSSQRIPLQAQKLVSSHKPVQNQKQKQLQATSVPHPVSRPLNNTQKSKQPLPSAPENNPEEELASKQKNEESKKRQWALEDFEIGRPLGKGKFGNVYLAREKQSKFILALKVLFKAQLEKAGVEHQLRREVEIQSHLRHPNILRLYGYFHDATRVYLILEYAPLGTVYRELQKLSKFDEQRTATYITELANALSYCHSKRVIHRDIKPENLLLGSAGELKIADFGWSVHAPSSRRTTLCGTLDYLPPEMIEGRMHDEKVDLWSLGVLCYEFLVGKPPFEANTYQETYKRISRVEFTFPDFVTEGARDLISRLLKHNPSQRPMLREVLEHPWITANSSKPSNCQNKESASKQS
Assay: Luciferase assay for AURKA in HeLa LgBit (AURKA-HiBit KI) cell line
Assay type: cell-based
Conditions: HeLa LgBit (AURKA-HiBit KI) cells, measured after 12 hours
Description: HeLa cell lines that stably express LgBit were constructed via LgBit vector transfection. Then, donor DNA and guide RNA for insertion of HiBit amino acid sequence at C-terminus of inherent Aurora kinase A (AURKA) genes were designed and constructed. Thereafter, they were transfected into the cell lines with CRISPR/Cas9 expression vector system. HiBit gene knock-in single cells were selected, passaged and used for the experiments.
For cell culture, DMEM (Gibco, Cat. No. 11995-065; Lot. No. 2562497), FBS (Gibco, Cat. No. 16000-044; Lot. No. 2511328P), Penicillin/Streptomycin (PS) (Gibco, Cat. No. 15140-122; Lot. No. 2585636), 90 mm^2 cell culture dish (SPL, Cat. No. 20100), 96-well white plate, PBS pH 7.4 (Gibco, […]), TrypLE™ Express (Gibco, Cat. No. 12605-010; Lot. No. 2522525), counting chamber (hematocytometer) (Hirschmann, Cat. No. 8100204; Lot. No. 8021087) and 0.4% Trypan Blue solution (DYNEBIO, Cat. No. CBT3710; Lot. No. 20231017) were used. Cells were cultured in DMEM supplemented with 10% FBS and 1% PS and incubated in CO2 incubator (Thermo, Cat. No. 4111) at 37° C., 5% CO2 condition.
HeLa LgBit (AURKA-HiBit KI) cell lines were cultured in 90 mm^2 cell culture dish, and 3×10^4 cells in […] of total medium volume were seeded and incubated for 18 hours in CO2 incubator. Then, Eudurazine (Promega, Cat. No. N247B; Lot. No. 495218) was added to each well to make up 1% of the total volume, followed by further incubation for 2 hours in CO2 incubator.
The present compounds were fully dissolved in DMSO (Sigma-Aldrich Cat. No. D2438, Lot. No. RNBL7287) and 10 nM or 100 nM of total concentration were used in the experiment. After adding the compounds in each well of 96-well white plate, the plate was placed in the plate reader (BMG Labtech, CLARIOstar Plus) for real-time analysis. The wavelength for analysis was set to […], and the luminescence value was measured after 12 hours. The luminescence value was analyzed through an Excel program.

Structure (SMILES)	luminescence value (Level) (10 nM compound)	luminescence value (Level) (100 nM compound)
O=C1CCC(Nc2ccc(N3CC4CN(CC5CN(C(=O)c6ccc(Nc7ncc(F)c(Nc8ccc(C(=O)Nc9ccccc9Cl)cc8)n7)cc6)C5)CC4C3)cc2)C(=O)N1 (centres unmarked) [Compound 34, N-(2-chlorophenyl)-4-((2-((4-(3-((5-(4-((2,6-dioxopiperidin-3-yl)amino)phenyl)hexahydropyrrolo[3,4-c]pyrrol-2(1H)-yl)methyl)azetidine-1-carbonyl)phenyl)amino)-5-fluoropyrimidin-4-yl)amino)benzamide]	B (B is 0.3 to 0.5)	A (A is <0.2)
O=C1CCC(Nc2ccc(N3CCC(CN4C[C@@H]5[C@H](C4)[C@H]5NC(=O)c4ccc(Nc5ncc(F)c(Nc6ccc(C(=O)Nc7ccccc7Cl)cc6)n5)cc4)CC3)cc2)C(=O)N1 (stereo partly drawn) [Compound 40, N-(2-chlorophenyl)-4-((2-((4-(((1R,5S,6s)-3-((1-(4-((2,6-dioxopiperidin-3-yl)amino)phenyl)piperidin-4-yl)methyl)-3-azabicyclo[3.1.0]hexan-6-yl)carbamoyl)phenyl)amino)-5-fluoropyrimidin-4-yl)amino)benzamide]	B (B is 0.3 to 0.5)	A (A is <0.2)
O=C1CCC(Nc2ccc(N3CCC(CN4C[C@H]5C[C@H](NC(=O)c6ccc(Nc7ncc(F)c(Nc8ccc(C(=O)Nc9ccccc9Cl)cc8)n7)cc6)C[C@H]5C4)CC3)cc2)C(=O)N1 (stereo partly drawn) [Compound 41, N-(2-chlorophenyl)-4-((2-((4-(((3aR,5s,6aS)-2-((1-(4-((2,6-dioxopiperidin-3-yl)amino)phenyl)piperidin-4-yl)methyl)octahydrocyclopenta[c]pyrrol-5-yl)carbamoyl)phenyl)amino)-5-fluoropyrimidin-4-yl)amino)benzamide]	B (B is 0.3 to 0.5)	B (B is 0.2 to 0.4)
O=C1CCC(Nc2ccc(N3CC4(CN(CC5CCN(C(=O)c6ccc(Nc7ncc(F)c(Nc8ccc(C(=O)Nc9ccccc9Cl)cc8)n7)cc6)CC5)C4)C3)cc2)C(=O)N1 (centres unmarked) [Compound 42, N-(2-chlorophenyl)-4-((2-((4-(4-((6-(4-((2,6-dioxopiperidin-3-yl)amino)phenyl)-2,6-diazaspiro[3.3]heptan-2-yl)methyl)piperidine-1-carbonyl)phenyl)amino)-5-fluoropyrimidin-4-yl)amino)benzamide]	B (B is 0.3 to 0.5)	A (A is <0.2)
O=C1CCC(NC(=O)c2cccc(N3CCC(CN4CCN(C(=O)Cc5ccc(Nc6ncc(F)c(Nc7ccc(C(=O)Nc8ccccc8Cl)cc7)n6)cc5)CC4)CC3)c2)C(=O)N1 (centres unmarked) [Compound 47, 3-(4-((4-(2-(4-((4-((4-((2-chlorophenyl)carbamoyl)phenyl)amino)-5-fluoropyrimidin-2-yl)amino)phenyl)acetyl)piperazin-1-yl)methyl)piperidin-1-yl)-N-(2,6-dioxopiperidin-3-yl)benzamide]	D (D is 0.7 to 0.8)	B (B is 0.2 to 0.4)
Cc1cc(Nc2nc(Nc3ccc(C(=O)NN4CCC(CCN5CCN(c6ccc(C7CCC(=O)NC7=O)cc6)CC5)CC4)cc3)ncc2F)n[nH]1 (centres unmarked) [Compound 59, N-(4-(2-(4-(4-(2,6-dioxopiperidin-3-yl)phenyl)piperazin-1-yl)ethyl)piperidin-1-yl)-4-((5-fluoro-4-((5-methyl-1H-pyrazol-3-yl)amino)pyrimidin-2-yl)amino)benzamide]	C (C is 0.5 to 0.7)	A (A is <0.2)
O=C1CCC(c2ccc(N3CCN(CCC4CCN(NC(=O)c5ccc(Nc6ncc(F)c(Nc7cc(C8CC8)[nH]n7)n6)cc5)CC4)CC3)cc2)C(=O)N1 (centres unmarked) [Compound 61, 4-((4-((5-cyclopropyl-1H-pyrazol-3-yl)amino)-5-fluoropyrimidin-2-yl)amino)-N-(4-(2-(4-(4-(2,6-dioxopiperidin-3-yl)phenyl)piperazin-1-yl)ethyl)piperidin-1-yl)benzamide]	C (C is 0.5 to 0.7)	A (A is <0.2)

Continued, values first:

luminescence value (Level) (10 nM compound)	luminescence value (Level) (100 nM compound)	Structure (SMILES)
B (B is 0.3 to 0.5)	B (B is 0.2 to 0.4)	O=C1CCC(Nc2ccc(N3CCN(C[C@@H]4[C@H]5CN(C(=O)c6ccc(Nc7ncc(F)c(Nc8ccc(C(=O)Nc9ccccc9Cl)cc8)n7)cc6)C[C@@H]45)CC3)cc2)C(=O)N1 (stereo partly drawn) [Compound 37, N-(2-chlorophenyl)-4-((2-((4-((1R,5S,6s)-6-((4-(4-((2,6-dioxopiperidin-3-yl)amino)phenyl)piperazin-1-yl)methyl)-3-azabicyclo[3.1.0]hexane-3-carbonyl)phenyl)amino)-5-fluoropyrimidin-4-yl)amino)benzamide]
B (B is 0.3 to 0.5)	A (A is <0.2)	O=C1CCC(Nc2ccc(N3CCCN(C[C@H]4CC[C@H](NC(=O)c5ccc(Nc6ncc(F)c(Nc7ccc(C(=O)Nc8ccccc8Cl)cc7)n6)cc5)CC4)CC3)cc2)C(=O)N1 (some centres unmarked) [Compound 39, N-(2-chlorophenyl)-4-((2-((4-(((1r,4r)-4-((4-(4-((2,6-dioxopiperidin-3-yl)amino)phenyl)-1,4-diazepan-1-yl)methyl)cyclohexyl)carbamoyl)phenyl)amino)-5-fluoropyrimidin-4-yl)amino)benzamide]
C (C is 0.5 to 0.7)	B (B is 0.2 to 0.4)	O=C1CCC(NC(=O)c2ccc(N3CCC(CN4CCN(C(=O)Cc5ccc(Nc6ncc(F)c(Nc7ccc(C(=O)Nc8ccccc8Cl)cc7)n6)cc5)CC4)CC3)cc2)C(=O)N1 (centres unmarked) [Compound 46, N-(2-chlorophenyl)-4-((2-((4-(2-(4-((1-(4-((2,6-dioxopiperidin-3-yl)carbamoyl)phenyl)piperidin-4-yl)methyl)piperazin-1-yl)-2-oxoethyl)phenyl)amino)-5-fluoropyrimidin-4-yl)amino)benzamide]
B (B is 0.3 to 0.5)	B (B is 0.2 to 0.4)	O=C1CCN(c2ccc(N3CCN(CCC4CCN(NC(=O)c5ccc(Nc6ncc(F)c(Nc7ccc(C(=O)Nc8ccccc8Cl)cc7)n6)cc5)CC4)CC3)cc2)C(=O)N1 [Compound 54, N-(2-chlorophenyl)-4-[[2-[4-[[4-[2-[4-[4-(2,4-dioxohexahydropyrimidin-1-yl)phenyl]piperazin-1-yl]ethyl]-1-piperidyl]carbamoyl]anilino]-5-fluoro-pyrimidin-4-yl]amino]benzamide]
D (D is 0.7 to 0.8)	B (B is 0.2 to 0.4)	O=C1CCC(c2ccc(N3CCC4(CC3)CC(C3CCN(NC(=O)c5ccc(Nc6ncc(F)c(Nc7ccc(C(=O)Nc8ccccc8Cl)cc7)n6)cc5)CC3)C4)cc2)C(=O)N1 (centres unmarked) [Compound 60, N-(2-chlorophenyl)-4-((2-((4-((4-(7-(4-(2,6-dioxopiperidin-3-yl)phenyl)-7-azaspiro[3.5]nonan-2-yl)piperidin-1-yl)carbamoyl)phenyl)amino)-5-fluoropyrimidin-4-yl)amino)benzamide]
B (B is 0.3 to 0.5)	A (A is <0.2)	O=C1CCC(c2ccc(N3CCC(CN4CCC(CNC(=O)c5ccc(Nc6ncc(F)c(Nc7ccc(C(=O)Nc8ccccc8Cl)cc7)n6)cc5)CC4)CC3)cc2)C(=O)N1 (centres unmarked) [Compound 62, N-(2-chlorophenyl)-4-((2-((4-(((1-((1-(4-(2,6-dioxopiperidin-3-yl)phenyl)piperidin-4-yl)methyl)piperidin-4-yl)methyl)carbamoyl)phenyl)amino)-5-fluoropyrimidin-4-yl)amino)benzamide]
